The target of assay [1] is Cyclin-dependent kinase 2/cyclin E (Homo sapiens, UniProt P24941). As to the kind of experiment: Inhibition of recombinant CDK2/cyclin E. The assay is classed as protein-complex assay.
Assay [2] deals with Cyclin-dependent kinase 2/cyclin A (Homo sapiens, UniProt P24941). As to the kind of experiment: Inhibition of recombinant CDK2/cyclin A. The assay is classed as protein-complex assay.
A short description of assay [3]: Antiproliferative activity against human HeLaS3 cells by sulforhodamine B assay. It is filed as functional. As to conditions: HeLa S3. A general note: The SRB assay estimates cell density from bound dye.

A word on the IC50: it is the concentration at which inhibition is half-maximal. The GI50 is the concentration at which growth is held to half of that of the control. Read a low GI50 as greater sensitivity of the cells.

With `CC(C)n1cnc2c(NCc3ccc(-c4ccccc4Cl)cc3)nc(N[C@H]3CC[C@H](N)CC3)nc21`, the IC50 in assay [1] is 600 nM; in assay [2] it was 1000 nM.

In assay [3], `Cn1cnc2c(NCc3ccccc3)nc(NCCO)nc21` [OLOMOUCINE] yielded a GI50 of 65000 nM. As for `CC(C)n1cnc2c(NCc3ccc(-c4ccccc4)cc3)nc(N[C@H]3CC[C@H](NC(=O)CC4CC4)CC3)nc21`, the values for the IC50 in assay [1] and in assay [2] were 300 nM and 600 nM, respectively.

In the case of `CC(C)n1cnc2c(NCc3ccc(-c4ccccc4)cc3)nc(N[C@@H]3CCCC[C@H]3N)nc21`, the results for the IC50 in assay [1] and in assay [2] were 900 nM and 2000 nM, respectively. Regarding `CC(C)n1cnc2c(NCc3ccc(-c4ccccc4)cc3)nc(NC3(CO)CCCC3)nc21`, the IC50 in assay [1] was determined as 600 nM; in assay [2], 2000 nM. For the compound `CC(Nc1nc(N[C@H]2CC[C@H](N)CC2)nc2c1ncn2C(C)C)c1ccc(-c2ccccc2)cc1` (some centres undefined), the IC50 in assay [1] is 4000 nM; in assay [2], 5000 nM. For `CCN(CC)[C@H]1CC[C@H](Nc2nc(NCc3ccc(-c4ccccc4)cc3)c3ncn(C(C)C)c3n2)CC1` the same measures were 3000 nM and 6000 nM.

For `Cn1cnc2c(NCc3ccc(-c4ccccc4)cc3)nc(N[C@H]3CC[C@H](N)CC3)nc21`, the results for the IC50 in assay [1] and in assay [2] were 800 nM and 1000 nM, respectively. In the same order, the values of `CC(C)n1cnc2c(NCc3ccc(-c4ccccc4)cc3)nc(NCCCN)nc21` are 400 nM and 3000 nM. In the same order, the values of `CC(C)n1cnc2c(NCc3ccc(-c4ccccc4)cc3)nc(N[C@H]3CC[C@H](NS(=O)(=O)C(F)(F)F)CC3)nc21` are > 5000 nM and > 5000 nM. In the same order, the values of `CC(C)n1cnc2c(NCc3ccc(-c4ccccc4)cc3)nc(NCCCCN)nc21` are 3000 nM and 3000 nM. As for `COc1cccc(-c2ccc(CNc3nc(N[C@H]4CC[C@H](N)CC4)nc4c3ncn4C(C)C)cc2)c1`, the IC50 in assay [1] stood at 150 nM; in assay [2] it was 350 nM. On to `CCCCN[C@H]1CC[C@H](Nc2nc(NCc3ccc(-c4ccccc4)cc3)c3ncn(C(C)C)c3n2)CC1`, for which the IC50 stood at 300 nM in assay [1] and 1000 nM in assay [2]. In the same order, the values of `Cc1ccc(-c2ccc(CNc3nc(N[C@H]4CC[C@H](N)CC4)nc4c3ncn4C(C)C)cc2)cc1` are 200 nM and 400 nM. For `CC(C)n1cnc2c(NCc3ccc(-c4ccccc4)cc3)nc(NC3CCCC(N)C3)nc21` (centres undefined) the same measures were 900 nM and 1000 nM.

Regarding `CCN[C@H]1CC[C@H](Nc2nc(NCc3ccc(-c4ccccc4)cc3)c3ncn(C(C)C)c3n2)CC1`, the IC50 in assay [1] worked out at 1000 nM; in assay [2], 3000 nM. For `CC(C)n1cnc2c(NCc3ccc(-c4ccccc4)cc3)nc(N3CCC(N)C3)nc21` (centres undefined) the same measures were 3000 nM and 3000 nM. In the same order, the values of `CC(C)n1cnc2c(NCc3ccc(-c4ccccc4)cc3)nc(N[C@H]3CC[C@H](NCC4CC4)CC3)nc21` are 300 nM and 900 nM. For `N[C@H]1CC[C@H](Nc2nc(NCc3ccc(-c4ccccc4)cc3)c3ncn(C4CCCC4)c3n2)CC1` the same measures were 90 nM and 100 nM. Turning to `CCC(=O)N[C@H]1CC[C@H](Nc2nc(NCc3ccc(-c4ccccc4)cc3)c3ncn(C(C)C)c3n2)CC1`, the IC50 worked out at 200 nM in assay [1] and 500 nM in assay [2]. With `CC(C)n1cnc2c(NCc3ccc(-c4ccccc4)cc3)nc(N[C@H]3CC[C@H](NS(C)(=O)=O)CC3)nc21`, the IC50 in assay [1] is 200 nM; in assay [2] it was 500 nM. In the same order, the values of `CC(C)n1cnc2c(NCc3ccc(-c4ccccc4)cc3)nc(N[C@@H]3CCCC[C@@H]3N)nc21` are 400 nM and 900 nM. In the same order, the values of `CC(C)n1cnc2c(NCc3ccc(-c4ccccc4)cc3)nc(N3CCC(CN)CC3)nc21` are 1000 nM and 4000 nM.

For `CC[C@H](CO)Nc1nc(NCc2ccccc2)c2ncn(C(C)C)c2n1` [SELICICLIB], in assay [3], halving of growth (GI50) required 20000 nM. This lies in the double-digit micromolar range. With `CC(=O)N[C@H]1CC[C@H](Nc2nc(NCc3ccc(-c4ccccc4)cc3)c3ncn(C(C)C)c3n2)CC1`, the IC50 in assay [1] worked out at 300 nM; in assay [2], 500 nM.

As for `CC(C)n1cnc2c(NCc3ccc(-c4ccccc4)cc3)nc(NC[C@H](C)NC(=O)OC(C)(C)C)nc21`, the figures for the IC50 in assay [1] and in assay [2] were 800 nM and 1000 nM, respectively.

Compound `CC(C)n1cnc2c(NCCc3ccc(-c4ccccc4)cc3)nc(N[C@H]3CC[C@H](N)CC3)nc21` showed a GI50 in assay [3] of 5000 nM. In addition, the values for the IC50 in assay [1] and in assay [2] were 800 nM and 1000 nM, respectively. `CC(C)n1cnc2c(NCc3ccc(-c4cccc(Cl)c4)cc3)nc(N[C@H]3CC[C@H](N)CC3)nc21`: the IC50 in assay [1] and in assay [2] was 400 nM throughout.

On to `CC(C)n1cnc2c(NCc3ccc(-c4ccccc4)cc3)nc(N3CCC(C(N)=O)CC3)nc21`, for which the IC50 in assay [1] and in assay [2] was > 5000 nM in each case. Consider `Cc1cc(C)cc(-c2ccc(CNc3nc(N[C@H]4CC[C@H](N)CC4)nc4c3ncn4C(C)C)cc2)c1`, for which the figures for the IC50 in assay [1] and in assay [2] were 200 nM and 400 nM, respectively. On to `Cc1ccc(-c2ccc(CNc3nc(N[C@H]4CC[C@H](N)CC4)nc4c3ncn4C(C)C)cc2)cc1C`, for which the IC50 in assay [1] turned out to be 250 nM; in assay [2] it was 500 nM. For `CC(C)n1cnc2c(NCc3ccc(-c4ccccc4)cc3)nc(NCCN)nc21` the same measures were 500 nM and 600 nM. Turning to `CCCN[C@H]1CC[C@H](Nc2nc(NCc3ccc(-c4ccccc4)cc3)c3ncn(C(C)C)c3n2)CC1`, the figures for the IC50 in assay [1] and in assay [2] were 400 nM and 500 nM, respectively. In the same order, the values of `CC(C)n1cnc2c(NCc3ccc(-c4ccccc4)cc3)nc(NCC3CCNCC3)nc21` are 2500 nM and 4000 nM. In the same order, the values of `CC(C)n1cnc2c(NCc3ccc(-c4ccccc4)cc3)nc(N[C@H]3CC[C@H](O)CC3)nc21` are 400 nM and 400 nM. Consider `CC(C)n1cnc2c(NCc3ccc(-c4ccccc4)cc3)nc(NC[C@H](C)N)nc21`, for which the results for the IC50 in assay [1] and in assay [2] were 900 nM and 2000 nM, respectively. For `Cc1cccc(-c2ccc(CNc3nc(N[C@H]4CC[C@H](N)CC4)nc4c3ncn4C(C)C)cc2)c1` the same measures were 200 nM and 300 nM. Turning to `CC[C@H](CO)Nc1nc(NCc2ccc(-c3ccccc3)cc2)c2ncn(C(C)C)c2n1`, the GI50 in assay [3] turned out to be 400 nM.

For the origin of these results see ChEMBL document CHEMBL1154643, “Biaryl purine derivatives as potent antiproliferative agents: inhibitors of cyclin dependent kinases. Part I” (Bioorg Med Chem Lett, 2009).
